This test has as its target T1, intestinal alkaline phosphatase (iAP) (Homo sapiens, UniProt P09923).
T1 construct: The supernatant contained proteins secreted in the gut lumen, on which our analysis is focused; from tissue; host or cells: stool supernatant (200 mg/mL slurry in water, centrifuged) from human preterm infants
T1 sequence (P09923 20-503 limits assumed): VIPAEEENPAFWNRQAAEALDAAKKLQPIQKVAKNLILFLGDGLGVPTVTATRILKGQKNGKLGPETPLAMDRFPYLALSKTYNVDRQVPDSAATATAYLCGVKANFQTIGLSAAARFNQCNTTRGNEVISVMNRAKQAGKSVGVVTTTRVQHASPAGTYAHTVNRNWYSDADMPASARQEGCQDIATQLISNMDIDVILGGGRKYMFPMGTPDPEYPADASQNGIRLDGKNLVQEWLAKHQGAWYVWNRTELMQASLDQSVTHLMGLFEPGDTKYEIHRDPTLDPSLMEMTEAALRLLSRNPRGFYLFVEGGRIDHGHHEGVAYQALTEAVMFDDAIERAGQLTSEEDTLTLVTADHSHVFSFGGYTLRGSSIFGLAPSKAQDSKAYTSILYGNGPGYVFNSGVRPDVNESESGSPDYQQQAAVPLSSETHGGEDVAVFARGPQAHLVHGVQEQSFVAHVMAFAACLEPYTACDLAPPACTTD
Kind of test: Fecal iAP catalytic activity, 4-methylumbelliferyl phosphate (MUP) fluorometric assay with and without L-phenylalanine. To be noted: 10 mM L-Phe, spread is SD, read-out: inhibition of AP activity by L-Phe. It is filed as biochemical. The procedure:
Fecal iAP catalytic activity: Alkaline phosphatase activity was measured with use of 4-methylumbelliferyl phosphate (MUP) as a fluorescent substrate (Abcam, ab83371) in the presence and absence of L-phenylalanine, an inhibitor of iAP. Relative fluorescence units (RFUs) at 360/440 nm were measured using a Spectra Max M2e spectrophotometer (Molecular Devices, Sunnyvale, CA). Ninety-six-well black optical bottom plates were used. Standards and negative controls were prepared for each plate run. Total AP activity was determined as: AP activity (mU/mL)=(B×dilution factor)/(T×V), in which B is nmol of product; V is volume of sample added to the well; T is reaction time; and U is the amount of enzyme causing hydrolysis of 1 μmol of MUP per minute at pH 10.0 and 25° C. […]
Fecal iAP Activity—Alkaline phosphatase activity was ascertained with the use of 4-methylumbelliferyl phosphate as a fluorescent substrate ab83371 (Abeam). […] Relative fluorescence units (RFUs) at 360/440 nm wavelengths were measured using a Spectra Max M2e spectrophotometer (Molecular Devices, Sunnyvale, CA). […] Reaction wells for samples, standards and negative background controls were prepared each time the assay was performed and total alkaline phosphatase activity was determined using: ALP activity (mU/ml)=(B/T)/V x dilution factor […]

Like-named read-outs stand apart in the source and are kept apart here.

Turning to `N[C@@H](Cc1ccccc1)C(=O)O` [L-Phe, L-phenylalanine], the inhibition at 10000 µM worked out at 90% (stool samples from NEC patients) and 91% (stool samples from control patients).

Values taken from patent US11953501B2, “Compositions and methods to detect gastrointestinal disease” (The Board of Supervisors of Louisiana State University and …, priority 2016, dated 2024).
